This is an account of results in the supplement of paper PMC10290057.

Molecules are shown by their SMILES.

For assay [1], the system named is HCT116. Briefly: AC50 cell viability (CellTiter-Glo); higher = less potent. As to conditions: 48 h. For orientation: Cellular ATP, detected with luciferase, serves as a proxy for viable cell number.
Assay [2] concerns HCT116. Briefly: efficacy (fitted maximal change in viability relative to DMSO control); higher = less cytotoxic (negative = loss of viability). As to conditions: 48 h.
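Throughout, for AC50 cell viability (CellTiter-Glo): HCT116 colorectal carcinoma cells screened at five concentrations per compound, luminescent viability scaled between DMSO wells and empty wells on each plate, curves fitted per compound.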
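Throughout, for efficacy (fitted maximal change in viability relative to DMSO control): Luminescence-based viability readout, five doses per compound, normalized against on-plate DMSO and empty-well controls, followed by dose-response curve fitting for every drug.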

`C=CC(=O)Nc1ccc2ncnc(Nc3cccc(Br)c3)c2c1` came in with an AC50 cell viability in the assay on HCT116 [1] of 13.2 µM. In the assay on HCT116 [2], the efficacy is -86.8%.
The corresponding values for `c1ccc2c(-c3cnn4cc(-c5ccc(N6CCNCC6)cc5)cnc34)ccnc2c1` are 2.35 µM and -104%.
`C/C(=N\NC(=S)N1CCC1)c1ccccn1` registered an AC50 cell viability with HCT116 [1] of 0.0295 µM. Moreover, in the assay with HCT116 [2], the efficacy is -85.2%.
Regarding `CC(=O)Nc1ccc([C@H](C)C(=O)Nc2ncc(C(C)C)s2)cc1`, the AC50 cell viability in the assay on HCT116 [1] was 2.09 µM. Moreover, the efficacy with HCT116 [2] was -59.3%.
The corresponding values for `CC(C)C1=N[N](C\2=C1C(=O)N\C(=N2)CC3=CC=C(OCCO)C=C3)C4=C(Cl)C=CC=C4Cl` are 0.0295 µM and -63.1%.
With `CC(C)C[C@H](NC(=O)c1cc2ccccc2s1)C(=O)N1CCN(C(=O)[C@H](CO)N[S+](=O)([O-])c2ccc(Cl)cc2Cl)CC1`, the AC50 cell viability in the assay on HCT116 [1] was found to be 16.6 µM. Besides, the efficacy with HCT116 [2] is -76.8%.
The like results for `CC(C)N(CCC(=O)c1ccc2ccccc2c1)Cc1ccccc1` were, in that order, 20.9 µM and -77.8%.
In the case of `CC(C)[C@@H](N(CCCN)C(=O)C1=CC=C(C)C=C1)C/2=C(\CC3=CC=CC=C3)C(=O)C4=C(O2)C=C(Cl)C=C4`, in the assay with HCT116 [1], the AC50 cell viability was determined as 8.33 µM. In addition, in the assay on HCT116 [2], the efficacy is -34.7%.
The corresponding values for `CC(C)[N]1C=C(C)C2=C1C=C(C=C2C(=O)NC\C3=C(C)\C=C(C)/NC3=O)C4=CC=C(N=C4)N5CCN(C)CC5` are 20.9 µM and -96.9%.
The like results for `CC(O)(C#Cc1ccc2c(c1)N(c1nc(N)ncc1Cl)CC2)c1nccs1` (configuration not stated) were, in that order, 16.6 µM and -76.1%.
The like results for `Cc1[nH]c(/C=C2\C(=O)Nc3ccc([S+](=O)([O-])Cc4c(Cl)cccc4Cl)cc32)c(C)c1C(=O)N1CCC[C@@H]1CN1CCCC1` were, in that order, 7.42 µM and -92%.
With `Cc1ccc(-n2c(C)cc(-c3nnc4n3CCCCC4)c2C)cc1`, the AC50 cell viability with HCT116 [1] amounted to 20.9 µM. Also, the efficacy in the assay with HCT116 [2] was -47.3%.
The compound `Cc1ccc([S+](=O)([O-])Nc2cc(-c3ccc(C#N)s3)ccc2C)cc1` had an AC50 cell viability in the assay with HCT116 [1] of 0.0372 µM. Moreover, in the assay with HCT116 [2], the efficacy is -59.9%.
The corresponding values for `Cc1ccc2nc(NCCN)c3ncc(C)n3c2c1` are 2.35 µM and -78.2%.
The like results for `Cc1cccc(-c2n[nH]cc2-c2ccc(F)c(-c3cnn(CCO)c3)c2)n1` were, in that order, 26.3 µM and -71.1%.
The corresponding values for `CCc1cc(-c2n[nH]c(C)c2-c2ccc3c(c2)OCCO3)c(O)cc1O` are 7.42 µM and -87%.
In the assay on HCT116 [1], `CCc1ccc(N(CC(C)C)[S+](=O)([O-])c2ccc(OCC3CCOCC3)c(CO)c2)cc1` registered an AC50 cell viability of 23.5 µM. In addition, the efficacy in the assay with HCT116 [2] was -83.5%.
Take `CCN1C(=O)N\2CC3=CC(=CC(=C3[C@@H](C)\C=C2C14CCN(CC4)CC5=CC(=CC(=C5)C)C)OC)OC`: in the assay with HCT116 [1], the AC50 cell viability turned out to be 23.5 µM. Besides, the efficacy in the assay on HCT116 [2] is -91.8%.
The compound `CCOC\1=C(/C(=O)NC2=CC=C(OC3=C(Cl)C(=NC=C3)N)C(=C2)F)C(=O)N(\C=C1)C4=CC=C(F)C=C4` showed an AC50 cell viability in the assay on HCT116 [1] of 18.6 µM. In the assay with HCT116 [2], the efficacy is -67.3%.
The like results for `CC[C@@H]1[C@H](F)C(=O)N[C@@H]1COc1nccc2cc(C(N)=O)c(OC)cc12` were, in that order, 13.2 µM and -66.9%.
The like results for `CCn1cc(-c2ccnc3[nH]c(-c4cccc(CN(C)C)c4)cc23)c(-c2ccc(NC(=O)N(C)C)cc2)n1` were, in that order, 5.25 µM and -101%.
`CN(C)Cc1ccc(-c2nc3cccc4c3n2CCNC4=O)cc1` showed an AC50 cell viability in the assay with HCT116 [1] of 5.9 µM. In addition, the efficacy with HCT116 [2] is -65.6%.
The corresponding values for `Cc1nc(Nc2n[nH]c3c2CN(C(=O)N[C@H](CN(C)C)c2ccccc2)C3(C)C)c2sccc2n1` are 0.0186 µM and -64.7%.
In turn, `Cc1cc(CN2CCN(c3c(Br)cnc4[nH]c(-c5ccc(N6CCN(C)CC6)cc5)nc34)CC2)no1` yielded an AC50 cell viability in the assay with HCT116 [1] of 5.25 µM. In the assay on HCT116 [2], the efficacy is -119%.
The like results for `Cc1cnc(Nc2ccc(N3CCN(C)CC3)cc2)nc1Nc1cccc([S+](=O)([O-])NC(C)(C)C)c1` were, in that order, 1.86 µM and -89.5%.
The corresponding values for `CN1CCN([C@H]2CC[C@H](n3cc(-c4ccc(Oc5ccccc5)cc4)c4c(N)ncnc43)CC2)CC1` are 7.42 µM and -110%.
On to `CNC(=O)c1ccc2c(c1)NC(=O)/C2=C(\Nc1cccc(CN(C)C)c1)c1ccccc1`, for which the AC50 cell viability in the assay on HCT116 [1] stood at 18.6 µM. Further, the efficacy with HCT116 [2] is -93.1%.
`CNCCN(C)Cc1c[nH]nc1-c1ccc(O[C@H]2C[C@H](OCCC3CCOCC3)C2)cc1` registered an AC50 cell viability in the assay on HCT116 [1] of 18.6 µM. Besides, the efficacy with HCT116 [2] was -52%.
The compound `CN[S+]([O-])(=O)NC1=NC=CC(=C1F)CC/2=C(C)/C3=CC=C(OC4=NC=CC=N4)C=C3OC2=O` yielded an AC50 cell viability in the assay with HCT116 [1] of 1.66 µM. In the assay on HCT116 [2], the efficacy is -43.7%.
For the compound `COC1=CC(=C2C(=O)N(COC/3=C/C(=O)N4\C=C/C=C(OCCN5CCCCC5)\C4=N3)[S+]([O-])(=O)C2=C1)C(C)C`, in the assay on HCT116 [1], the AC50 cell viability was determined as 20.9 µM. Also, the efficacy in the assay on HCT116 [2] is -84.2%.
The like results for `COc1cccc(Nc2ncnn3ccc(CN4CC[C@@H](N)[C@H](O)C4)c23)c1` were, in that order, 18.6 µM and -71.1%.
The like results for `COc1cc(-c2nn(C3CCC(N4CCN(C(C)=O)CC4)CC3)c3ncnc(N)c23)ccc1NC(=O)c1cc2ccccc2n1C` (configuration not stated) were, in that order, 10.5 µM and -90.5%.
The corresponding values for `COc1ccc(-c2oc3ncnc(N)c3c2-c2ccc(NC(=O)Nc3cc(C(F)(F)F)ccc3F)cc2)cc1` are 4.68 µM and -70.5%.
Turning to `COc1ccc(CNC(=O)Nc2ncc([N+](=O)[O-])s2)cc1`, in the assay on HCT116 [1], the AC50 cell viability was 20.9 µM. Also, the efficacy with HCT116 [2] is -96.6%.
Regarding `COc1ccc(Cn2ccc3ccc(C(=O)NO)cc32)cc1`, the AC50 cell viability with HCT116 [1] is 16.6 µM. Besides, the efficacy in the assay with HCT116 [2] is -71.9%.
The corresponding values for `COc1ccc(Oc2cc(NCCC(F)(F)F)c3ncc(-c4ccc(C(=O)NC5CC5)c(C)c4)n3n2)c(F)c1F` are 0.372 µM and -56.8%.
Consider `C[C@@H]1COCCN1c1cc(-c2ccnn2C)c2ccnc(-c3ccn[nH]3)c2n1`, for which, in the assay with HCT116 [1], the AC50 cell viability is 0.525 µM. The efficacy with HCT116 [2] was -70.3%.
In the assay with HCT116 [1], `C[C@@H](C(=O)Nc1ccc(Cl)cc1)[C@H]1CC[C@@H](c2ccnc3ccc(F)cc32)CC1` had an AC50 cell viability of 18.6 µM. In the assay with HCT116 [2], the efficacy was -47.3%.
Consider `C[C@H]1CN(C[C@@H](C)O1)CC(=O)NC2=CC=C3SC4=C(CC3=C2)C=CC=C4\C5=C\C(=O)\C=C(/O5)N6CCOCC6`, for which the AC50 cell viability in the assay on HCT116 [1] came to 5.9 µM. In addition, the efficacy in the assay on HCT116 [2] was -51.9%.
The like results for `C[N]1C=C(C=N1)C2=CC=C3N=CC\4=C(N(C(=O)\C=C4)C5=CC6=C(CCN6C(=O)C=C)C=C5)C3=C2` were, in that order, 0.512 µM and -78.5%.
The corresponding values for `Cn1cc(-c2ccc(F)c(C(F)(F)F)c2)nc1C1CCN(c2ncnc3[nH]ncc23)CC1` are 16.6 µM and -40.4%.
On to `Cn1ncc(Cl)c1-c1cc(C(=O)N[C@H](CN)Cc2cccc(F)c2)sc1Cl`, for which the AC50 cell viability with HCT116 [1] is 14.8 µM. Further, the efficacy with HCT116 [2] is -103%.
The like results for `Cc1nnn(C)c1-c1cnc2c3ccc(C(C)(C)O)cc3n([C@H](c3ccccc3)C3CCOCC3)c2c1` were, in that order, 0.0186 µM and -82.9%.
The corresponding values for `O=C(NCc1ccncc1)C12C[C@H]3C[C@@H](C1)CC(c1ccc(Cl)cc1)(C3)C2` are 20.9 µM and -52.9%.
The compound `FC(F)(F)C1=CC=C2C(SCCCCCO\C3=C\O\C(CN4CCOCC4)=C/C3=O)=CC=NC2=C1` had an AC50 cell viability with HCT116 [1] of 18.6 µM. Also, the efficacy in the assay with HCT116 [2] was -67.7%.
`O=C(Nc1cccnn1)N1CCC(=Cc2cccc(Oc3ccc(C(F)(F)F)cn3)c2)CC1` showed an AC50 cell viability with HCT116 [1] of 14.8 µM. Also, the efficacy in the assay with HCT116 [2] is -72.6%.
The corresponding values for `FC1=CC2=C3[N](CCN(CC3=C1)C(=O)N4CCCCC4)C=C2C/5=C(C(=O)NC5=O)\C6=CN=C7C=CC=C[N]67` are 11.8 µM and -108%.
The corresponding values for `NC(=O)c1cccc2nc(-c3ccc([C@H]4CCCN4)cc3F)[nH]c12` are 10.5 µM and -67.3%.
The corresponding values for `NC(=O)c1ccccc1Nc1ccnc(Nc2cccc(O)c2)n1` are 5.9 µM and -95.9%.
For `Nc1nccc(-c2c(-c3ccc(F)cc3)ncn2C2CCN(Cc3ccon3)CC2)n1`, the AC50 cell viability in the assay with HCT116 [1] amounted to 13.2 µM. Further, in the assay on HCT116 [2], the efficacy is -56.5%.
In the assay on HCT116 [1], `NCC1CCN(c2nccc(-c3ccc4ccccc4c3)n2)CC1` returned an AC50 cell viability of 14.8 µM. Moreover, the efficacy in the assay on HCT116 [2] was -126%.
Regarding `NC[C@@](O)(c1ccc(Cl)cc1)c1ccc(-c2cn[nH]c2)cc1`, the AC50 cell viability in the assay on HCT116 [1] came out at 7.42 µM. In the assay with HCT116 [2], the efficacy is -109%.
The like results for `N[S+]([O-])(=O)C1=CC=C(NC/2=C/C(=O)C3=CC=CC=C3C2=O)C=C1` were, in that order, 10.5 µM and -81.9%.
`O=C(NCCCNc1nc(Nc2ccc(N3CCOCC3)cc2)ncc1C1CC1)C1CCC1` had an AC50 cell viability in the assay with HCT116 [1] of 5.9 µM. Besides, the efficacy in the assay on HCT116 [2] is -84.5%.
The corresponding values for `Oc1ccc(-c2nc(-c3ccncc3)c(-c3ccc(F)cc3)[nH]2)cc1` are 23.5 µM and -80%.
`OCCC#Cc1nc(-c2ccc(F)cc2)c(-c2ccncc2)n1CCCc1ccccc1` gave an AC50 cell viability with HCT116 [1] of 23.5 µM. The efficacy in the assay on HCT116 [2] was -64.2%.
